Laboratory results published in PubChem BioAssay AID2060892 (Molecular Pharmacology Branch, DTP, NCI, 2025).

Test system: HOP-62 complex spheroids with HUVEC/MSC, viability
Experiment: Anticancer human tumor HOP-62 cell line growth inhibition [RAS];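 further: spheroids exposed to agents for seven days before readout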;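 on viability, T/C: 100% = DMSO vehicle control viability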
Settings: for IC50: curve of first compound; for viability, T/C: stronger effect = lower value
Procedure, shortened: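 Tumour cells grown as complex spheroids with HUVEC endothelial cells and mesenchymal stem cells, treated with RAS pathway inhibitor combinations. Each agent spans half-log steps from near clinical Cmax, or 10 microM where Cmax is unknown.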

What does the source list for `CC(=O)OC12COC1CC(O)C1(C)C(=O)C(O)C3=C(C)C(OC(=O)C(O)C(NC(=O)OC(C)(C)C)c4ccccc4)CC(O)(C(OC(=O)c4ccccc4)C21)C3(C)C` (configuration not stated) + C=CC(=O)N1CCN(c2nc(OCC3CCCN3C)nc3c(F)c(-c4nc(N)cc(C)c4C(F)(F)F)c(Cl)cc23)C(C)C1?
IC50 (second compound 0.00316 µM): < 31.6 nM; IC50 (second compound 0.01 µM): < 31.6 nM; IC50 (second compound 0.0316 µM): < 31.6 nM; IC50 (second compound 0.1 µM): < 31.6 nM; IC50 (second compound 0.316 µM): < 31.6 nM; IC50 (second compound 1 µM): < 31.6 nM; viability, T/C (second compound 0.00316 µM, first compound 0.0316 µM): 11.2%; viability, T/C (second compound 0.00316 µM, first compound 0.1 µM): 14.7%; viability, T/C (second compound 0.00316 µM, first compound 0.316 µM): 10.4%; viability, T/C (second compound 0.00316 µM, first compound 1 µM): 12.3%; viability, T/C (second compound 0.00316 µM, first compound 3.16 µM): 15.1%; viability, T/C (second compound 0.00316 µM, first compound 10 µM): 20.3%; viability, T/C (second compound 0.01 µM, first compound 0.0316 µM): 10.4%; viability, T/C (second compound 0.01 µM, first compound 0.1 µM): 11.1%; viability, T/C (second compound 0.01 µM, first compound 0.316 µM): 13.4%; viability, T/C (second compound 0.01 µM, first compound 1 µM): 10.4%; viability, T/C (second compound 0.01 µM, first compound 3.16 µM): 12.5%; viability, T/C (second compound 0.01 µM, first compound 10 µM): 16.6%; viability, T/C (second compound 0.0316 µM, first compound 0.0316 µM): 9.88%; viability, T/C (second compound 0.0316 µM, first compound 0.1 µM): 11.9%; viability, T/C (second compound 0.0316 µM, first compound 0.316 µM): 11%; viability, T/C (second compound 0.0316 µM, first compound 1 µM): 13%; viability, T/C (second compound 0.0316 µM, first compound 3.16 µM): 15.2%; viability, T/C (second compound 0.0316 µM, first compound 10 µM): 14.6%; viability, T/C (second compound 0.1 µM, first compound 0.0316 µM): 11.6%; viability, T/C (second compound 0.1 µM, first compound 0.1 µM): 12.4%; viability, T/C (second compound 0.1 µM, first compound 0.316 µM): 11.9%; viability, T/C (second compound 0.1 µM, first compound 1 µM): 13.6%; viability, T/C (second compound 0.1 µM, first compound 3.16 µM): 15.2%; viability, T/C (second compound 0.1 µM, first compound 10 µM): 19%; viability, T/C (second compound 0.316 µM, first compound 0.0316 µM): 9.18%; viability, T/C (second compound 0.316 µM, first compound 0.1 µM): 9.55%; viability, T/C (second compound 0.316 µM, first compound 0.316 µM): 10.4%; viability, T/C (second compound 0.316 µM, first compound 1 µM): 10.9%; viability, T/C (second compound 0.316 µM, first compound 3.16 µM): 14.8%; viability, T/C (second compound 0.316 µM, first compound 10 µM): 20.1%; viability, T/C (second compound 1 µM, first compound 0.0316 µM): 10.2%; viability, T/C (second compound 1 µM, first compound 0.1 µM): 10.5%; viability, T/C (second compound 1 µM, first compound 0.316 µM): 13%; viability, T/C (second compound 1 µM, first compound 1 µM): 14.2%; viability, T/C (second compound 1 µM, first compound 3.16 µM): 15.5%; viability, T/C (second compound 1 µM, first compound 10 µM): 20.1%
